According to the supplement of paper PMC11451515:

Key:
Conditions in all cases: 48 h
NOMO1 [1] = test: cell viability relative to DMSO control; higher = less cytotoxic
Summary of the method: (§1)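 Viability was expressed as a per-plate percentage of DMSO wells, with cell-free wells as background. Leukemia cells (NOMO1 or SEM at 500 cells/well, P12-Ichikawa at 1000 cells/well) were adapted for at least four passages in each medium and seeded in 1536-well plates (5 μl). Library compounds in DMSO were pin-dosed over an 11-point threefold series from 47 μM to 0.79 nM, and CellTiter-Glo One luminescence was read after 48 h at 37°C.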

P12-Ichikawa [2] = test: as above
Summary of the method: as §1

SEM cells [3] = test: as above
Summary of the method: as §1

NOMO1 [4] = test: AUC of viability dose-response curve (% viability x log10 dose units); higher = less sensitive
Summary of the method: (§2)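 Leukemia cells adapted to each medium (500 or 1000 cells/well, 1536-well plates) were exposed to library compounds in DMSO for 48 h at 37°C at 11 threefold doses, 47 μM to 0.79 nM. Luminescence by CellTiter-Glo One was normalised per plate to DMSO and cell-free wells, then fitted with a four-parameter log-logistic curve on log10 dose. Curves above full viability were scaled and quality-control failures removed before area under the curve was integrated by trapezoidal rule.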

P12-Ichikawa [5] = test: as above
Summary of the method: as §2

SEM cells [6] = test: as above
Summary of the method: as §2

CC\1=C/C=C\C=[N]1[Pt](N)(Cl)Cl
cell viability [%]
Conditions | NOMO1 [1] | P12-Ichikawa [2] | SEM cells [3]
HPLM + 10% dialyzed FBS, 0.000781 µM | 118 | 98.1 | 82
HPLM + 10% dialyzed FBS, 0.00234 µM | 105 | 108 | 79.2
HPLM + 10% dialyzed FBS, 0.00702 µM | 111 | 113 | 91.4
HPLM + 10% dialyzed FBS, 0.0211 µM | 110 | 108 | 96.5
HPLM + 10% dialyzed FBS, 0.0632 µM | 108 | 105 | 102
HPLM + 10% dialyzed FBS, 0.19 µM | 130 | 109 | 84.1
HPLM + 10% dialyzed FBS, 0.569 µM | 131 | 102 | 89.5
HPLM + 10% dialyzed FBS, 1.71 µM | 98.8 | 114 | 89
HPLM + 10% dialyzed FBS, 5.12 µM | 106 | 104 | 98.1
HPLM + 10% dialyzed FBS, 15.4 µM | 129 | 107 | 83.6
HPLM + 10% dialyzed FBS, 46.1 µM | 108 | 108 | 85.1
RPMI 5 mM glucose + 10% FBS, 0.000781 µM | 96.4 | 98.1 | 99.2
RPMI 5 mM glucose + 10% FBS, 0.00234 µM | 95.6 | 98.4 | 119
RPMI 5 mM glucose + 10% FBS, 0.00702 µM | 93.4 | 102 | 126
RPMI 5 mM glucose + 10% FBS, 0.0211 µM | 103 | 104 | 108
RPMI 5 mM glucose + 10% FBS, 0.0632 µM | 99.6 | 118 | 119
RPMI 5 mM glucose + 10% FBS, 0.19 µM | 113 | 118 | 124
RPMI 5 mM glucose + 10% FBS, 0.569 µM | 106 | 114 | 114
RPMI 5 mM glucose + 10% FBS, 1.71 µM | 88.7 | 106 | 109
RPMI 5 mM glucose + 10% FBS, 5.12 µM | 106 | 99.1 | 110
RPMI 5 mM glucose + 10% FBS, 15.4 µM | 110 | 108 | 120
RPMI 5 mM glucose + 10% FBS, 46.1 µM | 93.3 | 97.3 | 58
RPMI 5 mM glucose + 10% dialyzed FBS, 0.000781 µM | 107 | 102 | 80.5
RPMI 5 mM glucose + 10% dialyzed FBS, 0.00234 µM | 90.8 | 109 | 90.5
RPMI 5 mM glucose + 10% dialyzed FBS, 0.00702 µM | 96.6 | 98.3 | 97.1
RPMI 5 mM glucose + 10% dialyzed FBS, 0.0211 µM | 95.3 | 107 | 100
RPMI 5 mM glucose + 10% dialyzed FBS, 0.0632 µM | 96.4 | 114 | 98.1
RPMI 5 mM glucose + 10% dialyzed FBS, 0.19 µM | 111 | 112 | 91.4
RPMI 5 mM glucose + 10% dialyzed FBS, 0.569 µM | 97.3 | 110 | 87.3
RPMI 5 mM glucose + 10% dialyzed FBS, 1.71 µM | 104 | 105 | 83
RPMI 5 mM glucose + 10% dialyzed FBS, 5.12 µM | 107 | 105 | 91.5
RPMI 5 mM glucose + 10% dialyzed FBS, 15.4 µM | 109 | 87.2 | 79.5
RPMI 5 mM glucose + 10% dialyzed FBS, 46.1 µM | 96.3 | 91.4 | 55.9

AUC of viability dose-response curve
Conditions | NOMO1 [4] | P12-Ichikawa [5] | SEM cells [6]
HPLM + 10% dialyzed FBS | 471 | 472 | 427
RPMI 5 mM glucose + 10% FBS | 465 | 467 | 465
RPMI 5 mM glucose + 10% dialyzed FBS | 463 | 464 | 421

CC/C(=C(/c1ccc(O)cc1)c1ccc(OCCNC)cc1)c1ccccc1
cell viability [%]
Conditions | NOMO1 [1] | P12-Ichikawa [2] | SEM cells [3]
HPLM + 10% dialyzed FBS, 0.000781 µM | 99.4 | 105 | 61.4
HPLM + 10% dialyzed FBS, 0.00234 µM | 98.4 | 108 | 99.5
HPLM + 10% dialyzed FBS, 0.00702 µM | 98 | 110 | 91.2
HPLM + 10% dialyzed FBS, 0.0211 µM | 103 | 115 | 102
HPLM + 10% dialyzed FBS, 0.0632 µM | 106 | 118 | 103
HPLM + 10% dialyzed FBS, 0.19 µM | 130 | 94.8 | 115
HPLM + 10% dialyzed FBS, 0.569 µM | 113 | 104 | 101
HPLM + 10% dialyzed FBS, 1.71 µM | 123 | 106 | 96.7
HPLM + 10% dialyzed FBS, 5.12 µM | 90.8 | 71.9 | 65.6
HPLM + 10% dialyzed FBS, 15.4 µM | 75.9 | 63 | 59.5
HPLM + 10% dialyzed FBS, 46.1 µM | 47.1 | 68.6 | 26.1
RPMI 5 mM glucose + 10% FBS, 0.000781 µM | 102 | 116 | 66.8
RPMI 5 mM glucose + 10% FBS, 0.00234 µM | 97.2 | 108 | 102
RPMI 5 mM glucose + 10% FBS, 0.00702 µM | 120 | 109 | 108
RPMI 5 mM glucose + 10% FBS, 0.0211 µM | 108 | 108 | 112
RPMI 5 mM glucose + 10% FBS, 0.0632 µM | 114 | 114 | 107
RPMI 5 mM glucose + 10% FBS, 0.19 µM | 97.9 | 122 | 109
RPMI 5 mM glucose + 10% FBS, 0.569 µM | 117 | 113 | 102
RPMI 5 mM glucose + 10% FBS, 1.71 µM | 122 | 107 | 94.8
RPMI 5 mM glucose + 10% FBS, 5.12 µM | 108 | 68.3 | 65.7
RPMI 5 mM glucose + 10% FBS, 15.4 µM | 100 | 53.7 | 47.8
RPMI 5 mM glucose + 10% FBS, 46.1 µM | 45.8 | 42 | 25.9
RPMI 5 mM glucose + 10% dialyzed FBS, 0.000781 µM | 103 | 115 | 53.5
RPMI 5 mM glucose + 10% dialyzed FBS, 0.00234 µM | 99.7 | 116 | 106
RPMI 5 mM glucose + 10% dialyzed FBS, 0.00702 µM | 102 | 116 | 88.3
RPMI 5 mM glucose + 10% dialyzed FBS, 0.0211 µM | 115 | 117 | 104
RPMI 5 mM glucose + 10% dialyzed FBS, 0.0632 µM | 101 | 120 | 95.8
RPMI 5 mM glucose + 10% dialyzed FBS, 0.19 µM | 106 | 126 | 123
RPMI 5 mM glucose + 10% dialyzed FBS, 0.569 µM | 111 | 119 | 97.6
RPMI 5 mM glucose + 10% dialyzed FBS, 1.71 µM | 104 | 101 | 97.6
RPMI 5 mM glucose + 10% dialyzed FBS, 5.12 µM | 96.2 | 64.7 | 69.5
RPMI 5 mM glucose + 10% dialyzed FBS, 15.4 µM | 84.3 | 49.4 | 43.5
RPMI 5 mM glucose + 10% dialyzed FBS, 46.1 µM | 55.6 | 46.5 | 38

AUC of viability dose-response curve
Conditions | NOMO1 [4] | P12-Ichikawa [5] | SEM cells [6]
HPLM + 10% dialyzed FBS | 443 | 432 | 410
RPMI 5 mM glucose + 10% FBS | 459 | 414 | 412
RPMI 5 mM glucose + 10% dialyzed FBS | 452 | 405 | 405

COC1=CC=CC=C1C2=CC=CC(=C2)C/3=C(O)/C4=CC(=C(Cl)C=C4NC3=O)C#N
cell viability [%]
Conditions | NOMO1 [1] | P12-Ichikawa [2] | SEM cells [3]
HPLM + 10% dialyzed FBS, 0.000781 µM | 110 | 98.4 | 79.2
HPLM + 10% dialyzed FBS, 0.00234 µM | 120 | 106 | 92.5
HPLM + 10% dialyzed FBS, 0.00702 µM | 109 | 111 | 88.2
HPLM + 10% dialyzed FBS, 0.0211 µM | 109 | 114 | 93.5
HPLM + 10% dialyzed FBS, 0.0632 µM | 129 | 107 | 101
HPLM + 10% dialyzed FBS, 0.19 µM | 114 | 112 | 97.5
HPLM + 10% dialyzed FBS, 0.569 µM | 107 | 109 | 92.1
HPLM + 10% dialyzed FBS, 1.71 µM | 103 | 92.8 | 85.7
HPLM + 10% dialyzed FBS, 5.12 µM | 31.2 | 10.2 | 39.6
HPLM + 10% dialyzed FBS, 15.4 µM | 5.52 | 6.7 | 9.1
HPLM + 10% dialyzed FBS, 46.1 µM | 1.77 | 10.6 | 4.47
RPMI 5 mM glucose + 10% FBS, 0.000781 µM | 89.6 | 99.3 | 73.4
RPMI 5 mM glucose + 10% FBS, 0.00234 µM | 111 | 110 | 89.9
RPMI 5 mM glucose + 10% FBS, 0.00702 µM | 113 | 107 | 90.7
RPMI 5 mM glucose + 10% FBS, 0.0211 µM | 98.5 | 116 | 103
RPMI 5 mM glucose + 10% FBS, 0.0632 µM | 107 | 123 | 83
RPMI 5 mM glucose + 10% FBS, 0.19 µM | 108 | 115 | 81.3
RPMI 5 mM glucose + 10% FBS, 0.569 µM | 113 | 114 | 63.9
RPMI 5 mM glucose + 10% FBS, 1.71 µM | 110 | 106 | 48
RPMI 5 mM glucose + 10% FBS, 5.12 µM | 82.4 | 64.3 | 7.21
RPMI 5 mM glucose + 10% FBS, 15.4 µM | 13.4 | 4.25 | 4.33
RPMI 5 mM glucose + 10% FBS, 46.1 µM | 2.44 | 5.71 | 2.82
RPMI 5 mM glucose + 10% dialyzed FBS, 0.000781 µM | 92.2 | 95.2 | 87.3
RPMI 5 mM glucose + 10% dialyzed FBS, 0.00234 µM | 103 | 99.1 | 102
RPMI 5 mM glucose + 10% dialyzed FBS, 0.00702 µM | 95.4 | 105 | 92.9
RPMI 5 mM glucose + 10% dialyzed FBS, 0.0211 µM | 93.6 | 105 | 98.7
RPMI 5 mM glucose + 10% dialyzed FBS, 0.0632 µM | 96.4 | 99.6 | 93.4
RPMI 5 mM glucose + 10% dialyzed FBS, 0.19 µM | 88.3 | 101 | 102
RPMI 5 mM glucose + 10% dialyzed FBS, 0.569 µM | 104 | 110 | 93.4
RPMI 5 mM glucose + 10% dialyzed FBS, 1.71 µM | 108 | 94 | 69
RPMI 5 mM glucose + 10% dialyzed FBS, 5.12 µM | 84.5 | 45.5 | 21.6
RPMI 5 mM glucose + 10% dialyzed FBS, 15.4 µM | 21 | 5.98 | 7.81
RPMI 5 mM glucose + 10% dialyzed FBS, 46.1 µM | 4.29 | 6.01 | 3.41

AUC of viability dose-response curve
Conditions | NOMO1 [4] | P12-Ichikawa [5] | SEM cells [6]
HPLM + 10% dialyzed FBS | 368 | 361 | 350
RPMI 5 mM glucose + 10% FBS | 401 | 388 | 288
RPMI 5 mM glucose + 10% dialyzed FBS | 400 | 380 | 344
